Test results taken from patent publication US20190275002A1 (priority 2018, published 2019).
Read-outs that look alike come from different tables or passages of the source.

Legend:
[1] = system: influenza A virus (strain A/Aichi/2/1968 H3N2); conditions: 0.7 M arginine-containing solution, cited from earlier work
[2] = system: influenza A virus (strain A/Puerto Rico/8/1934/H1N1); test: Viral load in lungs of PR8-infected mice by plaque assay on MDCK cells; type: in vivo, C57BL/6J mice; conditions: for Average viral load (pfu): substances in drinking water (experimental group also intraperitoneal injection)
[3] = system: influenza A virus (strain A/Hong Kong/X31/68 H3N2); conditions: lungs of infected mice, 1-MT in drinking water; cited from earlier work
[4] = system: influenza A virus (strain A/Kumamoto/Y5/67 H2N2); conditions: mouse, in vivo; cited from earlier work
[5] = mice lungs, seventh day after intranasal inoculation with 200 pfu PR8 virus
[6] = mice lungs, seventh day after virus inoculation

N=C(N)NCCC[C@H](N)C(=O)O [arginine]
virus inactivation effect ([1]; pH 4.5, on ice for 30 to 60 minutes): most potent virus inactivation effect
virus inactivation effect ([1]; pH 5.5, on ice for 30 to 60 minutes): no virus inactivation effect was detected

Cn1cc(C[C@H](N)C(=O)O)c2ccccc21 [Inhibitor group 3, 1-methyl-tryptophan]
Average viral load (pfu) [2, 5]: 4.37 × 10^3 pfu
average viral load compared with the control group [2, 6]: significantly lower
number of activated and functional CD4+ T-cells, influenza-specific CD8+ T-cells and effector memory cells [3]: increased significantly

N=C(NO)NCC[C@H](N)C(=O)O [Inhibitor group 2, N^ω-hydroxy-nor-L-arginine acetate]
Average viral load (pfu) [2, 5]: 2.47 × 10^3 pfu
average viral load compared with the control group [2, 6]: significantly lower

CN=C(N)NCCC[C@H](N)C(=O)O.O=C(O)CC(O)(CC(=O)O)C(=O)O [Inhibitor group 1, L-NG-monomethyl arginine citrate]
Average viral load (pfu) ([2]; […]): 4.30 × 10^3 pfu
average viral load compared with the control group ([2]; mouse, in vivo): significantly lower
production of NO-hemoglobin in the lungs [4]: inhibit
survival rate [4]: effectively increasing
